Laboratory results taken from the Kinase Knowledgebase extract (Sharma et al. 2016).

Target: EGFR (UniProt P00533)
Sequence (P00533 whole entry, looked up): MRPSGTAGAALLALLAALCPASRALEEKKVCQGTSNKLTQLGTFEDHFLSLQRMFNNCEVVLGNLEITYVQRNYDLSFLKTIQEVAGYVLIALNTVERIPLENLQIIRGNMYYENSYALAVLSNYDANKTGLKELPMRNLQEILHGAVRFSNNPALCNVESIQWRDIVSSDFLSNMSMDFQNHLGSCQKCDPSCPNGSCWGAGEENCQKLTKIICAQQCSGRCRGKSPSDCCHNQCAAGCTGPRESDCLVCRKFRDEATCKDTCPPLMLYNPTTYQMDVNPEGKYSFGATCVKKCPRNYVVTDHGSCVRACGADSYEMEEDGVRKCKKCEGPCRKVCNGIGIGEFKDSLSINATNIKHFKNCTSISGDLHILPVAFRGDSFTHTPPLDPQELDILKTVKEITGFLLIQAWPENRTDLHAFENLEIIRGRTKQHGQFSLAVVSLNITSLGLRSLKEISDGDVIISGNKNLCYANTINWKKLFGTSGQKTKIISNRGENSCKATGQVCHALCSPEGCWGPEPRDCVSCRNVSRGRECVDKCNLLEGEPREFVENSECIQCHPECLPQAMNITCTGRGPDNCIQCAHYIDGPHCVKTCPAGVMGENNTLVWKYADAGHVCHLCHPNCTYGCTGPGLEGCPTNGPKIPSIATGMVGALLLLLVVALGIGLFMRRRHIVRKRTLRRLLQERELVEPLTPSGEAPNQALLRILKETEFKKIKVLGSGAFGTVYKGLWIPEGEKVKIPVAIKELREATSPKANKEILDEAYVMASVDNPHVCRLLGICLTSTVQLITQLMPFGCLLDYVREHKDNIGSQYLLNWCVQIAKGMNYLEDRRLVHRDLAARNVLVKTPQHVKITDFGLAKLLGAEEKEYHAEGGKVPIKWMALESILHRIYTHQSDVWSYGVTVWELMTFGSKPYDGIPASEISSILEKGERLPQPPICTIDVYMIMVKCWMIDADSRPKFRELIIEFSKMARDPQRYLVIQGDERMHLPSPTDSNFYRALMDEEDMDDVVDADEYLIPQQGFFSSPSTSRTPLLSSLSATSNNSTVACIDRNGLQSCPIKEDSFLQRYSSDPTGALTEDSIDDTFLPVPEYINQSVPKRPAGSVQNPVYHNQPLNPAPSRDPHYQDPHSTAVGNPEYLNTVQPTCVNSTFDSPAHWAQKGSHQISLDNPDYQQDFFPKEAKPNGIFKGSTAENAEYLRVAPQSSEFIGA

`COc1cc2c(Nc3ccc(Cl)c(Cl)c3)ncnc2cc1OCc1nc(-c2ccc(N3CCCC3)cc2)cs1` was tested, and the IC50 was under 0.05 µM.
`COc1cc2c(Nc3ccc(Br)c(Cl)c3)ncnc2cc1O[C@H]1CO[C@H]2[C@@H]1OCC21OCCO1` showed an IC50 of under 0.05 µM.
`CCCCCCN1CCOC(COc2cc3ncnc(Nc4ccc(Cl)c(Cl)c4)c3cc2OC)C1` (stereo not given) gave an IC50 of under 0.05 µM.
`COc1cc2c(Nc3cc(C(F)(F)F)ccc3Br)ncnc2cc1O[C@@H]1CO[C@@H]2[C@H]1OC[C@H]2F` was tested, and the IC50 was under 0.05 µM.
`COc1cc2c(Nc3ccc(F)c(Cl)c3F)ncnc2cc1OC[C@H]1C[C@@H]2CN(C)C[C@@H]2C1` showed an IC50 of under 0.05 µM.
Molecule `COc1cc2c(Nc3ccc(Cl)c(Cl)c3)ncnc2cc1OCC1CN(C(C)C)CCO1` (stereo not given) has an IC50 of under 0.05 µM.
Work on `COCCN1CCCOC(COc2cc3ncnc(Nc4ccc(Cl)c(Cl)c4)c3cc2OC)C1` (stereo not given) yielded an IC50 of under 0.05 µM.
Molecule `COc1cc2c(Nc3ccc(Cl)c(Cl)c3F)ncnc2cc1OC[C@@H]1CN(C)CC(=O)N1C` has an IC50 of under 0.05 µM.
For `COc1cc2c(Nc3ccc(Cl)c(Cl)c3)ncnc2cc1OCc1nc(N2CCN(C(=O)OC(C)(C)C)CC2)no1`, the IC50 was under 0.05 µM.
Work on `COc1cc2c(Nc3ccc(Cl)c(Cl)c3)ncnc2cc1OCC1CN(C(N)=NC#N)CCCO1` (stereo not given) yielded an IC50 of under 0.05 µM.
Work on `COc1cc2c(Nc3ccc(Br)cc3Cl)ncnc2cc1O[C@@H]1CO[C@@H]2[C@H]1OC[C@H]2F` yielded an IC50 of under 0.05 µM.
`COc1cc2c(Nc3ccc(Cl)c(Cl)c3)ncnc2cc1OCc1cscn1` gave an IC50 of under 0.05 µM.
`COc1cc2c(Nc3ccc(Cl)c(Cl)c3)ncnc2cc1OCC1CN(C(C)=O)CCO1` (stereo not given) gave an IC50 of under 0.05 µM.
For `COc1cc2c(Nc3ccc(F)c(Cl)c3)ncnc2cc1O[C@@H]1CO[C@@H]2[C@H]1OC[C@H]2F`, the IC50 was under 0.05 µM.
For `COc1cc2c(Nc3ccc(Br)c(Cl)c3F)ncnc2cc1OC[C@H]1C[C@@H]2CN(C)C[C@@H]2C1`, the IC50 was under 0.05 µM.
`COc1cc2c(Nc3ccc(Cl)c(Cl)c3)ncnc2cc1OCc1nc(-c2ccccn2)cs1` was tested, and the IC50 was under 0.05 µM.
`COc1cc2c(Nc3ccc(F)c(Cl)c3)ncnc2cc1OCC1CN(C)CCO1` (stereo not given) was tested, and the IC50 was under 0.05 µM.
In the case of `COc1cc2c(Nc3ccc(Cl)c(Cl)c3)ncnc2cc1OCC1CN(CCC2OCCCO2)CCO1` (stereo not given), the IC50 is reported as under 0.05 µM.
Molecule `COc1cc2c(Nc3ccc(F)c(C(F)(F)F)c3)ncnc2cc1O[C@@H]1CO[C@@H]2[C@H]1OC[C@H]2F` has an IC50 of under 0.05 µM.
For `CCN1CCCC(c2nc(COc3cc4ncnc(Nc5ccc(Cl)c(Cl)c5)c4cc3OC)no2)C1` (stereo not given), the IC50 was under 0.05 µM.
For `COc1cc2c(Nc3ccc(Cl)c(Cl)c3)ncnc2cc1OCc1csc(N2CCN(C)CC2)n1`, the IC50 was under 0.05 µM.
Molecule `COc1cc2c(Nc3cc(Cl)ccc3C)ncnc2cc1O[C@@H]1CO[C@@H]2[C@H]1OC[C@H]2F` has an IC50 of under 0.05 µM.
`CCCCCCCN1CCOC(COc2cc3ncnc(Nc4ccc(Cl)c(Cl)c4)c3cc2OC)C1` (stereo not given) gave an IC50 of under 0.05 µM.
For `COc1cc2c(Nc3ccc(Cl)c(Cl)c3)ncnc2cc1OCC1CN(CCC2CCCCC2)CCCO1` (stereo not given), the IC50 was under 0.05 µM.
`COc1cc2c(Nc3ccc(Br)c(Cl)c3)ncnc2cc1O[C@H]1CO[C@H]2[C@@H]1OC[C@@H]2OC(F)F` gave an IC50 of under 0.05 µM.
Work on `COc1cc2c(Nc3ccc(Br)c(Cl)c3)ncnc2cc1OCC1CN(C)CCO1` (stereo not given) yielded an IC50 of under 0.05 µM.
Molecule `CCN1CCCCC1c1nc(COc2cc3ncnc(Nc4ccc(Cl)c(Cl)c4)c3cc2OC)no1` (stereo not given) has an IC50 of under 0.05 µM.
Molecule `COc1cc2c(Nc3ccc(Cl)c(Cl)c3)ncnc2cc1OCC1CN(C(C)C(C)=O)CCO1` (stereo not given) has an IC50 of under 0.05 µM.
With `COc1cc2c(Nc3ccc(Cl)c(Cl)c3Cl)ncnc2cc1O[C@@H]1CO[C@@H]2[C@H]1OC[C@H]2F` the IC50 was under 0.05 µM.
With `COc1cc2c(Nc3ccc(Cl)c(Cl)c3)ncnc2cc1OCc1cc(F)cc2c1OCOC2` the IC50 was under 0.05 µM.
For `COc1cc2c(Nc3ccc(Br)c(Cl)c3)ncnc2cc1O[C@H]1CO[C@@H]2[C@H]1OC[C@@H]2N`, the IC50 was under 0.05 µM.
`COc1cc2c(Nc3ccc(Cl)c(Cl)c3F)ncnc2cc1OC[C@H]1C[C@@H]2CN(C)C[C@@H]2C1` gave an IC50 of under 0.05 µM.
`COc1cc2c(Nc3ccc(F)cc3)ncnc2cc1O[C@@H]1CO[C@@H]2[C@H]1OC[C@H]2F` was tested, and the IC50 was under 0.05 µM.
`COc1cc2c(Nc3ccc(Cl)c(Cl)c3)ncnc2cc1OCC1CN(C(=O)c2cc(F)ccc2F)CCO1` (stereo not given) gave an IC50 of under 0.05 µM.
Work on `COc1cc2c(Nc3ccc(Br)c(Cl)c3F)ncnc2cc1OC[C@@H]1CN2CCOC[C@H]2CO1` yielded an IC50 of under 0.05 µM.
`COc1cc2c(Nc3ccc(Cl)c(Cl)c3)ncnc2cc1OCC1CN(C)C(C)(C)C(=O)O1` (stereo not given) was tested, and the IC50 was under 0.05 µM.
`COc1cc2c(Nc3ccc(Cl)c(Cl)c3)ncnc2cc1OC1CO[C@@H]2[C@@H](OC)CO[C@H]12` (stereo not given in full) was tested, and the IC50 was under 0.05 µM.
`COc1cc2c(Nc3ccc(Cl)c(Cl)c3)ncnc2cc1OCc1csc([C@@H]2CSCN2)n1` was tested, and the IC50 was under 0.05 µM.
`COc1cc2c(Nc3ccc(Cl)c(Cl)c3F)ncnc2cc1OC[C@@H]1CN(C)CC(=O)N1` showed an IC50 of under 0.05 µM.
`COc1cc2c(Nc3cc(Cl)c(Br)cc3F)ncnc2cc1OC[C@@H]1CN2CCOC[C@H]2CO1` showed an IC50 of under 0.05 µM.
In the case of `COc1cc2c(Nc3ccc(Br)c(Cl)c3C)ncnc2cc1OCC1CN(C)CCO1` (stereo not given), the IC50 is reported as under 0.05 µM.
`COc1cc2c(Nc3ccc(Cl)c(Cl)c3)ncnc2cc1OCc1ccc2nc(C(F)(F)F)cc(Cl)c2c1` gave an IC50 of 0.05 to 1 µM.
With `COc1cc2c(Nc3ccc(Cl)c(Cl)c3)ncnc2cc1OCCNC1CC2CCC(C1)N2C` (stereo not given) the IC50 was under 0.05 µM.
For `CCCCc1ccc(C(=O)N2CCOC(COc3cc4ncnc(Nc5ccc(Cl)c(Cl)c5)c4cc3OC)C2)cc1` (stereo not given), the IC50 was under 0.05 µM.
`COc1cc2c(Nc3ccc(Cl)c(Cl)c3)ncnc2cc1OCC1CN(C(=O)CC(=O)O)CCO1` (stereo not given) showed an IC50 of under 0.05 µM.
`CNC(=NC#N)N1CCOC(COc2cc3ncnc(Nc4ccc(Cl)c(Cl)c4)c3cc2OC)C1` (stereo not given) gave an IC50 of under 0.05 µM.
`COc1cc2c(Nc3ccc(Cl)c(Cl)c3)ncnc2cc1OCC1CN(S(C)(=O)=O)CCO1` (stereo not given) gave an IC50 of under 0.05 µM.
In the case of `COc1cc2c(Nc3ccc(Cl)c(Cl)c3)ncnc2cc1OCC1COCCN1C` (stereo not given), the IC50 is reported as under 0.05 µM.
For `COc1ccc(OC)c(Nc2ncnc3cc(O[C@@H]4CO[C@@H]5[C@H]4OC[C@H]5F)c(OC)cc23)c1`, the IC50 was under 0.05 µM.
Molecule `CCN1CCN(CC)C(COc2cc3ncnc(Nc4ccc(Cl)c(Cl)c4)c3cc2OC)C1` (stereo not given) has an IC50 of under 0.05 µM.
In the case of `COc1cc2c(Nc3ccc(Br)cc3F)ncnc2cc1OCC1CN(C)CCO1` (stereo not given), the IC50 is reported as under 0.05 µM.
Molecule `COc1cc2c(Nc3ccc(F)c(Cl)c3F)ncnc2cc1OCC1CO[C@@H]2[C@@H](OC)CO[C@H]12` (stereo not given in full) has an IC50 of under 0.05 µM.
Molecule `COc1cc2c(Nc3ccc(Cl)c(Cl)c3)ncnc2cc1OCC1CCC1` has an IC50 of under 0.05 µM.
`COc1cc2c(Nc3ccc(Cl)c(Cl)c3)ncnc2cc1OCCC1CN(C(=O)OC(C)(C)C)C(C)(C)CO1` (stereo not given) gave an IC50 of under 0.05 µM.
With `COc1cc2c(Nc3ccc(F)cc3C(F)(F)F)ncnc2cc1O[C@@H]1CO[C@@H]2[C@H]1OC[C@H]2F` the IC50 was under 0.05 µM.
`COc1cc2c(Nc3cc(Cl)c(Cl)c(Cl)c3)ncnc2cc1O[C@@H]1CO[C@@H]2[C@H]1OC[C@H]2F` gave an IC50 of under 0.05 µM.
Molecule `COc1cc2c(Nc3ccc(Br)c(Cl)c3)ncnc2cc1O[C@H]1CO[C@@H]2[C@H]1OC[C@@H]2SC` has an IC50 of under 0.05 µM.
`CCNC(=NC#N)N1CCOC(COc2cc3ncnc(Nc4ccc(Cl)c(Cl)c4)c3cc2OC)C1` (stereo not given) showed an IC50 of under 0.05 µM.
Molecule `COc1cc2c(Nc3cc(Cl)c(Cl)cc3F)ncnc2cc1OC[C@H]1CN2CCOC[C@H]2CO1` has an IC50 of under 0.05 µM.
`CCN1CCC[C@H]1c1noc(COc2cc3ncnc(Nc4ccc(Cl)c(Cl)c4)c3cc2OC)n1` showed an IC50 of under 0.05 µM.
In the case of `CCC#CCN1CCOC(COc2cc3ncnc(Nc4ccc(Cl)c(Cl)c4)c3cc2OC)C1` (stereo not given), the IC50 is reported as under 0.05 µM.
In the case of `COc1cc2c(Nc3cc(Cl)c(Cl)cc3F)ncnc2cc1OCC1CN(C)CCO1` (stereo not given), the IC50 is reported as under 0.05 µM.
`COc1cc2c(Nc3ccc(Cl)c(Cl)c3)ncnc2cc1OCc1noc(C2CCCN2)n1` (stereo not given) gave an IC50 of under 0.05 µM.
`COc1cc2c(Nc3ccc(Br)c(F)c3F)ncnc2cc1OCC1CN(C)CCO1` (stereo not given) showed an IC50 of under 0.05 µM.
`COc1cc2c(Nc3ccccc3Cl)ncnc2cc1O[C@@H]1CO[C@@H]2[C@H]1OC[C@H]2F` was tested, and the IC50 was under 0.05 µM.
